In patent US6653529B2, “Use of the maize X112 mutant ahas 2 gene and imidazolinone herbicides for selection of transgenic monocots, maize, rice and wheat plants resistant to the imidazolinone herbicides” (BASF Aktiengesellschaft, priority 2000, dated 2003):

Tests used:
Format in all cases: in vivo
[1] = system: rice plants (transgenic Lines 26 and 29; Nt control); assay: Greenhouse herbicide tests on rice; conditions: for effect on plant growth at 1× rates: post-emergence
Text: We evaluated the response of transgenic rice to PURSUIT® imazethapyr application in the greenhouse. In this experiment, we included 2 transgenic lines and their untransformed counterpart (Nt). The transgenic lines, designated as Line 26 and 29, were T3 progeny derived from previously identified homozygous resistant transgenic plants containing the maize XI12 ahas2 gene driven by its own promoter. All seeds were pre-germinated in water for 2-3 days then grown in a planting mixture consisting of 1:1 soil and MetroMix 360 (The Scotts Company, Marysville, Ohio 43040) in 6-inch pots (2 seeds per pot) in the greenhouse and sprayed with PURSUIT® imazethapyr at 63, 125, or 250 g ai/ha. For post-emergence application, the plants were sprayed 15 days after seeding, at which time most plants had 3 leaves. For pre-emergence treatment, PURSUIT® imazethapyr was sprayed one day after seeding. Each treatment contained 20 plants and, and 3 replicates per treatment. One set of materials was not sprayed and used as control. The plants were grown in the greenhouse and harvested at maturity. The amount of PURSUIT® imazethapyr applied in this study (63, 125, or 250 g ai/ha) was close to 1, 2 or 4× field application rate for imi-resistant corn (refer to Table 3) since PURSUIT® imazethapyr is not currently labeled for use in rice fields. A custom designed belt sprayer was operated as described (Newhouse et al. 1992) for all herbicide applications. Five plants from each treatment were randomly chosen and individually measured for morphological traits. Means and standard deviations were calculated over three replications. Plant heights were measured from the base of the plant to the tip of the flag leaf 93 days after herbicide applications (DAH) and number of tillers per plant were counted 102-103 DAH. Data on number of panicles per plant and yield were collected after plants were harvested.
(§1) A total of 9 herbicides, 5 imidazolinones, two rice herbicides and ACCENT® (nicosulfuron) and CLASSIC® (clorimuron-ethyl) were applied in this study. Materials and methods were basically the same as described above, except that instead of 6″ pots, flats with 18 (3″×3″ per cell) cells were used, and 10-12 seeds were planted to one 3″×3″ cell. Ten plants were maintained in one cell in the post-emergence application. Each herbicide was sprayed at 4 different rates, 1, 2, 4, and 6×, as either pre or post-emergence applications with three replications per treatment. The name and amount of herbicide applied in this experiment and information relevant to their commercial applications are listed in Table 3. For simplicity and convenience, the lowest concentration used is referred as 1× rate, 2, 4 and 6× rates can be calculated as multiples of 1×.
(§2) To monitor plant response to various herbicides, data on fresh weight was collected. For pre-emergence applications, all plants from one cell were harvested 32 days after spraying (36-day old plants) and weighed. Twenty-nine days after herbicide application, 5 plants (44-day old plants) from each cell in the post-emergence application, were cut and weighed individually. Mean fresh weight for each treatment was calculated over three replications. The remaining 5 plants were grown in the greenhouse to maturity at which time, panicles of 3 plants were collected, and number of filled seeds and number of total kernels were counted to determine percentage of seed set.

transgenic rice Line 29 = assay: Response of rice plants to various herbicides, seed set in greenhouse; conditions: post-emergence, 1× g ai/ha: PURSUIT 62.5, CADRE 32, ARSENAL 24, RAPTOR 32, SCEPTER 125, ACCENT 35, CLASSIC 5, AC322,140 20, LONDAX 68
Text: as §1, §2

[2] = system: untransformed Nt rice plants; assay: as above; conditions: post-emergence, 1× g ai/ha: PURSUIT 62.5, CADRE 32, ARSENAL 24, RAPTOR 32, SCEPTER 125, ACCENT 35, CLASSIC 5, AC322,140 20, LONDAX 68
Text: as §1, §2

transgenic rice Line 26 = assay: as above; conditions: post-emergence, 1× g ai/ha: PURSUIT 62.5, CADRE 32, ARSENAL 24, RAPTOR 32, SCEPTER 125, ACCENT 35, CLASSIC 5, AC322,140 20, LONDAX 68
Text: as §1, §2

Row | SMILES | % seed-set (transgenic rice Line 29; 1× rate) [%] | No. filled seeds/3 panicles (transgenic rice Line 29; 1× rate) | Total No. of kernels/3 panicles (transgenic rice Line 29; 1× rate) | % seed-set (transgenic rice Line 29; 2× rate) [%] | No. filled seeds/3 panicles (transgenic rice Line 29; 2× rate) | Total No. of kernels/3 panicles (transgenic rice Line 29; 2× rate) | % seed-set (transgenic rice Line 29; 4× rate) [%] | No. filled seeds/3 panicles (transgenic rice Line 29; 4× rate) | Total No. of kernels/3 panicles (transgenic rice Line 29; 4× rate) | % seed-set (transgenic rice Line 29; 6× rate) [%] | No. filled seeds/3 panicles (transgenic rice Line 29; 6× rate) | Total No. of kernels/3 panicles (transgenic rice Line 29; 6× rate) | % seed-set ([2]; 1× rate) [%] | No. filled seeds/3 panicles ([2]; 1× rate) | Total No. of kernels/3 panicles ([2]; 1× rate) | % seed-set ([2]; 2× rate) [%] | No. filled seeds/3 panicles ([2]; 2× rate) | Total No. of kernels/3 panicles ([2]; 2× rate) | % seed-set ([2]; 4× rate) [%] | No. filled seeds/3 panicles ([2]; 4× rate) | further results
1 | COc1cc(OC)nc(NC(=O)NS(=O)(=O)Nc2ccccc2C(=O)C2CC2)n1 [AC 322,140, cyclosulfamuron] | 91 | 150 | 166 | 92 | 172 | 187 | 80 | 129 | 160 | 87 | 134 | 154 | 93 | 175 | 187 | 93 | 158 | 171 | 95 | 83 | effect on growth of all plants treated ([1]; transgenic and control plants): minimal effect; Total No. of kernels/3 panicles ([2]; 4× rate): 86; % seed-set ([2]; 6× rate): 98%; No. filled seeds/3 panicles ([2]; 6× rate): 118; Total No. of kernels/3 panicles ([2]; 6× rate): 121; % seed-set (transgenic rice Line 26; 1× rate): 90%; No. filled seeds/3 panicles (transgenic rice Line 26; 1× rate): 144; Total No. of kernels/3 panicles (transgenic rice Line 26; 1× rate): 160; % seed-set (transgenic rice Line 26; 2× rate): 94%; No. filled seeds/3 panicles (transgenic rice Line 26; 2× rate): 158; Total No. of kernels/3 panicles (transgenic rice Line 26; 2× rate): 168; % seed-set (transgenic rice Line 26; 4× rate): 91%; No. filled seeds/3 panicles (transgenic rice Line 26; 4× rate): 166; Total No. of kernels/3 panicles (transgenic rice Line 26; 4× rate): 182; % seed-set (transgenic rice Line 26; 6× rate): 85%; No. filled seeds/3 panicles (transgenic rice Line 26; 6× rate): 134; Total No. of kernels/3 panicles (transgenic rice Line 26; 6× rate): 158
2 | COc1cc(OC)nc(NC(=O)NS(=O)(=O)c2ncccc2C(=O)N(C)C)n1 [ACCENT ®, nicosulfuron] | 82 | 94 | 114 | 10 | 24 | 48 | 0 | 0 | 0 | 0 | 0 | 0 | 3 | 6 | 24 | 0 | 0 | 0 | 0 | 0 | effect on plant growth at 1× rates [1]: greatly affected plant growth; Total No. of kernels/3 panicles ([2]; 4× rate): 0; % seed-set ([2]; 6× rate): 0%; No. filled seeds/3 panicles ([2]; 6× rate): 0; Total No. of kernels/3 panicles ([2]; 6× rate): 0; % seed-set (transgenic rice Line 26; 1× rate): 34%; No. filled seeds/3 panicles (transgenic rice Line 26; 1× rate): 82; Total No. of kernels/3 panicles (transgenic rice Line 26; 1× rate): 145; % seed-set (transgenic rice Line 26; 2× rate): 0%; No. filled seeds/3 panicles (transgenic rice Line 26; 2× rate): 0; Total No. of kernels/3 panicles (transgenic rice Line 26; 2× rate): 0; % seed-set (transgenic rice Line 26; 4× rate): 0%; No. filled seeds/3 panicles (transgenic rice Line 26; 4× rate): 0; Total No. of kernels/3 panicles (transgenic rice Line 26; 4× rate): 0; % seed-set (transgenic rice Line 26; 6× rate): 0%; No. filled seeds/3 panicles (transgenic rice Line 26; 6× rate): 0; Total No. of kernels/3 panicles (transgenic rice Line 26; 6× rate): 0
3 | CCOC(=O)c1ccccc1S(=O)(=O)NC(=O)Nc1nc(Cl)cc(OC)n1 [CLASSIC ®, chlorimuron-ethyl] | 88 | 115 | 130 | 85 | 112 | 132 | 37 | 35 | 45 | 4 | 5 | 14 | 87 | 87 | 99 | 92 | 90 | 97 | 0 | 0 | effect on plant growth at 1× rates [1]: greatly affected plant growth; Total No. of kernels/3 panicles ([2]; 4× rate): 0; % seed-set ([2]; 6× rate): 0%; No. filled seeds/3 panicles ([2]; 6× rate): 0; Total No. of kernels/3 panicles ([2]; 6× rate): 0; % seed-set (transgenic rice Line 26; 1× rate): 83%; No. filled seeds/3 panicles (transgenic rice Line 26; 1× rate): 95; Total No. of kernels/3 panicles (transgenic rice Line 26; 1× rate): 114; % seed-set (transgenic rice Line 26; 2× rate): 93%; No. filled seeds/3 panicles (transgenic rice Line 26; 2× rate): 100; Total No. of kernels/3 panicles (transgenic rice Line 26; 2× rate): 108; % seed-set (transgenic rice Line 26; 4× rate): 28%; No. filled seeds/3 panicles (transgenic rice Line 26; 4× rate): 26; Total No. of kernels/3 panicles (transgenic rice Line 26; 4× rate): 65; % seed-set (transgenic rice Line 26; 6× rate): 20%; No. filled seeds/3 panicles (transgenic rice Line 26; 6× rate): 10; Total No. of kernels/3 panicles (transgenic rice Line 26; 6× rate): 18
